# Reference: patent publication US20220185832A1, “CD73 INHIBITORS” (BioArdis LLC, priority 2019, published 2022)
# Biological target: T1, Recombinant Human 5′-Nucleotidase (CD73) (Homo sapiens, UniProt P21589)
# T1 construct: CHO derived CD73 (Trp27-Lys547), with a C-terminal 6-His tag; 6-His (C); purchased R&D 5795-EN; host or cells: CHO
# T1 sequence (P21589 27-547): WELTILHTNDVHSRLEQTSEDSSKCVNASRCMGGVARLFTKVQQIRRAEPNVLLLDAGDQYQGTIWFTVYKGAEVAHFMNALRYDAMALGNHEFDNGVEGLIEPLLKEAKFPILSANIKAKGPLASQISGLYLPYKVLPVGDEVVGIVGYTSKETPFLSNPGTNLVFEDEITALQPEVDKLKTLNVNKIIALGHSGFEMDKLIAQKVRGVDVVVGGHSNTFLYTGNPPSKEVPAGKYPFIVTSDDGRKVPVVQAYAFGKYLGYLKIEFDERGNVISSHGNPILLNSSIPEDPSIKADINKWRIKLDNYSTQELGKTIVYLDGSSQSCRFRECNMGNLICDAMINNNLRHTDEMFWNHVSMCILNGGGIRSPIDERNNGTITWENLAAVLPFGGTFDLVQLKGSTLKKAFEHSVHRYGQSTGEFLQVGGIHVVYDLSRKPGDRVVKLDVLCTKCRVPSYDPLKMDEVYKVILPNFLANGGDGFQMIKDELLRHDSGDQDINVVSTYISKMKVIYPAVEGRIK
# Test: CD73 Enzyme Assay
# Assay type: biochemical
# Conditions: 0.5 nM human CD73, 30 μM AMP, PiColorLock phosphate detection, OD 635 nm; read-out: Potency (IC50)
# From the text: Soluble recombinant CD73 catalyzes the conversion of adenosine monophosphate (AMP) to adenosine and inorganic phosphate. The phosphate detection reagent, PiColorLock™ (Innova Bioscience, Cat #303-0125) is based on the change in absorbance of the dye malachite green in the presence of inorganic phosphate (Pi) and this property can be exploited to measure any enzyme that generates Pi. Recombinant Human 5′-Nucleotidase (CD73) (R&D #5795-EN, CHO derived CD73 (Trp27-Lys547), with a C-terminal 6-His tag) was used in the enzymatic assay. This assay was run in a 384-well plate format (Corning® NBS™ 384 well plates, Cat #3640). The basic assay procedure involves two steps: 1) Enzyme reaction: The CD73 enzyme (R&D #5795-EN) is incubated in the presence or absence of compounds. AMP (sigma, cat #01930) is added to start the kinase reaction. 2) Detection step: “Gold mix” is added to the assay system, then stabilizers are added. After incubation the absorbance of the solution is read at OD 635 nm. The recorded OD signal is proportional to the enzyme activity.
# Briefly, 25 μl human CD73 (0.5 nM final concentration) in the enzymatic buffer solutions (20 mM Tris, 25 mM NaCl, 1 mM MgCl2, pH 7.5, 0.005% Tween-20) were mixed with various concentrations of the test compound (dissolved in 100% DMSO). These solutions were incubated for 15 min at 25° C., and subsequently 25 μl AMP (30 μM final concentration) was added to start the reaction. The final reaction mixture of enzyme-substrate-compound was incubated for 20 min at 37° C. Meanwhile, “Gold mix” was prepared shortly before use by adding 1/100 vol. of accelerator to the PiColorLock™ Gold reagent. 12 μL/well of the “Gold mix” was added to assay plate containing 50 μL enzyme reaction buffer and incubated at 25° C. for 5 min. 5 μL/well stabilizer was added to the assay plate and incubated at 25° C. for 30 min. The absorbance of the well solutions was measured at 635 nm on a Spark 10M instrument (TECAN).
# The percent (%) inhibition at each concentration of a compound was calculated relative to the OD value in the Max and Min control wells contained within each assay plate. The Max control wells contained enzyme and substrate as 0% inhibition, and the Min control wells only contained substrate without enzyme as 100% inhibition. The concentrations and percent inhibition values for a test compound are plotted and the concentration of the compound required to achieve 50% inhibition (IC50) was determined with a four-parameter logistic dose response equation.
row,IC50,SMILES
1,< 10 nM,"O=P(O)(O)CP(=O)(O)OC[C@H]1O[C@@H](c2ccc3c(N4CC5CCCC5C4)nc(Cl)nc3c2)[C@H](O)[C@@H]1O (stereo partly drawn) [Compound 24, [({[(2R,3S,4R,5S)-5-(2-chloro-4-{hexahydro-1H-cyclopenta[c]pyrrol-2-yl}quinazolin-7-yl)-3,4-dihydroxyoxolan-2-yl]methoxy}(hydroxy)phosphoryl)methyl]phosphonic acid]"
2,10 to 99 nM,"O=P(O)(O)CP(=O)(O)OC[C@H]1O[C@@H](c2ccc3c(NCC4CCC(O)CC4)nc(Cl)nc3c2)[C@H](O)[C@@H]1O (stereo partly drawn) [Compound 42, (((((2R,3S,4R,5S)-5-(2-chloro-4-(((4-hydroxycyclohexyl)methyl)amino)quinazolin-7-yl)-3,4-dihydroxytetrahydrofuran-2-yl)methoxy)(hydroxy)phosphoryl)methyl)phosphonic acid]"
3,10 to 99 nM,"O=P(O)(O)CP(=O)(O)OC[C@H]1O[C@@H](c2cnc3c(NC4CCCC4)nc(Cl)nc3c2)[C@H](O)[C@@H]1O [Compound 40, (((((2R,3S,4R,5S)-5-(2-chloro-4-(cyclopentylamino)pyrido[3,2-d]pyrimidin-7-yl)-3,4-dihydroxytetrahydrofuran-2-yl)methoxy)(hydroxy)phosphoryl)methyl)phosphonic acid]"
4,> 1000 nM,"C[C@@]1(O)[C@H](O)[C@@H](COP(=O)(O)CP(=O)(O)O)O[C@H]1c1ccc2c(NCc3ccccc3)nc(Cl)nc2c1 [Compound 34, (((((2R,3R,4R,5S)-5-(4-(benzylamino)-2-chloroquinazolin-7-yl)-3,4-dihydroxy-4-methyltetrahydrofuran-2-yl)methoxy)(hydroxy)phosphoryl)methyl)phosphonic acid]"
5,100 to 999 nM,"CN(c1nc(Cl)nc2cc([C@@H]3O[C@H](COP(=O)(O)CP(=O)(O)O)[C@@H](O)[C@@H]3F)ccc12)C1CCCC1 [Compound 15, (((((2R,3R,4S,5S)-5-(2-chloro-4-(cyclopentyl(methyl)amino)quinazolin-7-yl)-4-fluoro-3-hydroxytetrahydrofuran-2-yl)methoxy)(hydroxy)phosphoryl)methyl)phosphonic acid]"
6,10 to 99 nM,"O=P(O)(O)CP(=O)(O)OC[C@H]1O[C@@H](c2ccc3c(NCC4CCOC4)nc(Cl)nc3c2)[C@H](O)[C@@H]1O (stereo partly drawn) [Compound 21, [({[(2R,3S,4R,5S)-5-[2-chloro-4-[(oxolan-3-ylmethyl)amino]quinazolin-7-yl]-3,4-dihydroxyoxolan-2-yl]methoxy}(hydroxy)phosphoryl)methyl]phosphonic acid]"
7,100 to 999 nM,"O=P(O)(O)CP(=O)(O)OC[C@H]1O[C@@H](c2ccc3c(N4CCc5ccccc54)nc(Cl)nc3c2)[C@H](O)[C@@H]1O [Compound 30, (((((2R,3S,4R,5S)-5-(2-chloro-4-(indolin-1-yl)quinazolin-7-yl)-3,4-dihydroxytetrahydrofuran-2-yl)methoxy)(hydroxy)phosphoryl)methyl)phosphonic acid]"
8,10 to 99 nM,"O=P(O)(O)CP(=O)(O)OC[C@H]1O[C@@H](c2ccc3c(NC4CCC(O)CC4)nc(Cl)nc3c2)[C@H](O)[C@@H]1O (stereo partly drawn) [Compound 26, (((((2R,3S,4R,5S)-5-(2-chloro-4-((4-hydroxycyclohexyl)amino)quinazolin-7-yl)-3,4-dihydroxytetrahydrofuran-2-yl)methoxy)(hydroxy)phosphoryl)methyl)phosphonic acid]"
9,100 to 999 nM,"CCc1nc(NCc2ccccc2)c2ccc([C@@H]3O[C@H](COP(=O)(O)CP(=O)(O)O)[C@@H](O)[C@H]3O)cc2n1 [Compound 20, [({[(2R,3S,4R,5S)-5-[4-(benzylamino)-2-ethylquinazolin-7-yl]-3,4-dihydroxyoxolan-2-yl]methoxy}(hydroxy)phosphoryl)methyl]phosphonic acid]"
10,100 to 999 nM,"O=P(O)(O)CP(=O)(O)OC[C@H]1O[C@@H](c2cccc3c(NCc4ccccc4)nc(Cl)nc23)[C@H](O)[C@@H]1O [Compound 32, (((((2R,3S,4R,5S)-5-(4-(benzylamino)-2-chloroquinazolin-8-yl)-3,4-dihydroxytetrahydrofuran-2-yl)methoxy)(hydroxy)phosphoryl)methyl)phosphonic acid]"
11,10 to 99 nM,"O=P(O)(O)CP(=O)(O)OC[C@H]1O[C@@H](c2ccc3c(NCc4ccccc4)nc(C4CC4)nc3c2)[C@H](O)[C@@H]1O [Compound 45, (((((2R,3S,4R,5S)-5-(4-(benzylamino)-2-cyclopropylquinazolin-7-yl)-3,4-dihydroxytetrahydrofuran-2-yl)methoxy)(hydroxy)phosphoryl)methyl)phosphonic acid]"
12,10 to 99 nM,"O=P(O)(O)CP(=O)(O)OC[C@H]1O[C@@H](c2ccc3c(N4CCC(c5ccccc5)C4)nc(Cl)nc3c2)[C@H](O)[C@@H]1O (stereo partly drawn) [Compound 35, (((((2R,3S,4R,5S)-5-(2-chloro-4-(3-phenylpyrrolidin-1-yl)quinazolin-7-yl)-3,4-dihydroxytetrahydrofuran-2-yl)methoxy)(hydroxy)phosphoryl)methyl)phosphonic acid]"
13,100 to 999 nM,"O=P(O)(O)CP(=O)(O)OC[C@H]1O[C@@H](c2ccc3c(OC4CCCC4)nc(Cl)nc3c2)[C@H](O)[C@@H]1O [Compound 33, (((((2R,3S,4R,5S)-5-(2-chloro-4-(cyclopentyloxy)quinazolin-7-yl)-3,4-dihydroxytetrahydrofuran-2-yl)methoxy)(hydroxy)phosphoryl)methyl)phosphonic acid]"
14,10 to 99 nM,"O=P(O)(O)CP(=O)(O)OC[C@H]1O[C@@H](c2ccc3c(NCC4CC(O)C4)nc(Cl)nc3c2)[C@H](O)[C@@H]1O (stereo partly drawn) [Compound 44, (((((2R,3S,4R,5S)-5-(2-chloro-4-(((3-hydroxycyclobutyl)methyl)amino)quinazolin-7-yl)-3,4-dihydroxytetrahydrofuran-2-yl)methoxy)(hydroxy)phosphoryl)methyl)phosphonic acid]"
15,10 to 99 nM,"O=P(O)(O)CP(=O)(O)OC[C@H]1O[C@@H](c2ccc3c(NC4CCCC4)nc(C4CC4)nc3c2)[C@H](O)[C@@H]1O [Compound 39, (((((2R,3S,4R,5S)-5-(4-(cyclopentylamino)-2-cyclopropylquinazolin-7-yl)-3,4-dihydroxytetrahydrofuran-2-yl)methoxy)(hydroxy)phosphoryl)methyl)phosphonic acid]"
